This note sets out measurements from patent publication US8114880B2, “Piperidine or piperazine substituted tetrahydro-naphthalene-1-carboxylic acid MTP inhibiting compounds” (Janssen Pharmaceutica N.V., priority 2006, dated 2012).

Where only a bound is given, the exact number is not on record here.

In general, IC50 refers to the point on the concentration scale where inhibition reaches its midpoint. Lower therefore signals higher potency. For orientation: pIC50 means the negative decadic logarithm of the IC50, by convention in mol/L. High values mean a small IC50, low ones a large IC50.

One test has as its system HepG2 cells. The test is described as follows: Quantification of the secretion of ApoB. To be noted: 24 hours of incubation; for IC50: Homo sapiens, HepG2, 24 h, pIC50 = -log IC50. It is filed as cell-based. As to the method: HepG2 cells were cultured in 24-well plates in MEM Rega 3 containing 10% fetal calf serum. At 70% confluency, the medium was changed and the test compound or carrier (DMSO, 0.4% final concentration) was added. After 24 hours of incubation, the medium was transferred to Eppendorf tubes and cleared by centrifugation. A sheep antibody directed against either apoB was added to the supernatant and the mixture was kept at 8° C. for 24 hours. Then, rabbit anti-sheep antibody was added and the immune complex was allowed to precipitate for 24 hours at 8° C. The immunoprecipitate was pelleted by centrifugation for 25 minutes at 1320 g and washed twice with a buffer containing 40 mM Mops, 40 mM NaH2PO4, 100 mM NaF, 0.2 mM DTT, 5 mM EDTA, 5 mM EGTA, 1% Triton-X-100, 0.5% sodium deoxycholate (DOC), 0.1% SDS, 0.2 μM leupeptin and 0.2 μM PMSF. Radioactivity in the pellet was quantified by liquid scintillation counting. The IC50 values are usually converted to pIC50 values (=−log IC50 value) for ease of use.

A further test deals with MTP (Homo sapiens, UniProt P55157). In words: MTP assay (triglyceride transfer from donor to acceptor vesicles). It is filed as biochemical. To be noted: MTP activity, percent triglyceride transfer from donor to acceptor vesicles, 37° C. The method in brief:
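Radiolabelled triglyceride transfer from donor vesicles (phosphatidylcholine, 7.5 mol % cardiolipin, 0.25 mol % glycerol tri[1-^14C]-oleate) to phosphatidylcholine acceptor vesicles with BSA, pH 7.5 Tris buffer; compounds in DMSO (0.13% final), 5 min preincubation at 37° C before MTP addition. Donor vesicles removed on DEAE-52; acceptor-supernatant ^14C counts give percent transfer.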

Chain of MTP (P55157 19-894, species assumed): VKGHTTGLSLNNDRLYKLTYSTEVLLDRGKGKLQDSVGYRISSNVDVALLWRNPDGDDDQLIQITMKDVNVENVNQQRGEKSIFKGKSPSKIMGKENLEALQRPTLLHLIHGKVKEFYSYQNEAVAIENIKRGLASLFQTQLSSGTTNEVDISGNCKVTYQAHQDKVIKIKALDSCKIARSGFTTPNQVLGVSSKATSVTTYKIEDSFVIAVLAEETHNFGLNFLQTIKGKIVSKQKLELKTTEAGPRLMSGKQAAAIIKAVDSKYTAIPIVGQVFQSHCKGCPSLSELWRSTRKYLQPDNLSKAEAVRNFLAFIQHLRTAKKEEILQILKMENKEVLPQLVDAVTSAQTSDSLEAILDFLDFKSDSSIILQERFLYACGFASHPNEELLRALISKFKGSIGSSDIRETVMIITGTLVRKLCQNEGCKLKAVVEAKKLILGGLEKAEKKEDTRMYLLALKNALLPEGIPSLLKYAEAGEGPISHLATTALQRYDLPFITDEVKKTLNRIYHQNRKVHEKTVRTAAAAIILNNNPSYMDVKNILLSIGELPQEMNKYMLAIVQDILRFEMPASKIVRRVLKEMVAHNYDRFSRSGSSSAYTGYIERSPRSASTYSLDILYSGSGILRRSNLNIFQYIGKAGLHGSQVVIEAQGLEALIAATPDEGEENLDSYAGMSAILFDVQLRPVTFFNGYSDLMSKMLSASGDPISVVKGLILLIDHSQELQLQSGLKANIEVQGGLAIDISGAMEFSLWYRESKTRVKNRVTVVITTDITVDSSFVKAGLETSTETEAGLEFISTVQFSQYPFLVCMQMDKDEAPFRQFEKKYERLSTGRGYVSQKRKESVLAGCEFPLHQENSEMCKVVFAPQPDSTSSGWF
Chain of MTP (P07237 18-508 partner, species assumed): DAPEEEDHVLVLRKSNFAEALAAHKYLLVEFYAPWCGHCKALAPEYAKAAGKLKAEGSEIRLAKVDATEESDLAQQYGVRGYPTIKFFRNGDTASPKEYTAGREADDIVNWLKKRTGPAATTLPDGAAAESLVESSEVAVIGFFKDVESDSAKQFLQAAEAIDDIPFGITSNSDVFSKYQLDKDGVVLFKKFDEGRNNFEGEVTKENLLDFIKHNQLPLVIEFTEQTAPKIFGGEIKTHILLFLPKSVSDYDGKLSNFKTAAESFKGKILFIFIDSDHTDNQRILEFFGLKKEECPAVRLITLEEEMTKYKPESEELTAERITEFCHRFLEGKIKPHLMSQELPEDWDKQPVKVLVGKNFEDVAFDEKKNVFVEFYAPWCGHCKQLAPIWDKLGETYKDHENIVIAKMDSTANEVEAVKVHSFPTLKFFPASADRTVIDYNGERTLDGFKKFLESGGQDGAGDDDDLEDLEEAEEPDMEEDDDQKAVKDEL

On to `CCOC(=O)CCCNC(=O)[C@@]1(c2ccccc2)CC[C@H](C(=O)N2CCC(NC(=O)c3ccccc3OC)CC2)c2ccccc21` [Co. No. 202], for which the IC50 with HepG2 cells is 793 nM; against MTP it was 3.16 nM.
For the compound `CCOC(=O)CCNC(=O)[C@@]1(c2ccccc2)CC[C@H](C(=O)N2CCC(NC(=O)c3ccccc3OC)CC2)c2ccccc21` [Co. No. 129], the results for the IC50 with HepG2 cells and against MTP were 4.36 nM and 1.77 nM, respectively.
With `COc1ccccc1C(=O)NC1CCN(C(=O)[C@H]2CC[C@@](C(=O)N[C@@H](CCC(=O)OC(C)(C)C)C(=O)OC(C)(C)C)(c3ccccc3)c3ccccc32)CC1` [Co. No. 108], the IC50 in the test on HepG2 cells is 74.8 nM; against MTP, 9.18 nM.
Take `CCOC(=O)CNC(=O)[C@@]1(c2ccccc2)CC[C@H](C(=O)N2CCC(NC(=O)c3ccccc3OC)CC2)c2ccccc21` [Co. No. 47]: the 50% inhibitory concentration (IC50) was 27.2 nM with HepG2 cells and 2.37 nM against MTP.
Regarding `CCOC(=O)C(Cc1ccc(O)cc1)NC(=O)[C@@]1(c2ccccc2)CC[C@H](C(=O)N2CCC(NC(=O)c3ccccc3OC)CC2)c2ccccc21` (some centres unmarked) [Co. No. 85], the results for the concentration for half-maximal inhibition (IC50) in the test on HepG2 cells and against MTP were above 1000 nM and above 100 nM, respectively.
As for `CCNC(=O)[C@]1(c2ccccc2)CC[C@@H](C(=O)N2CC[C@@H](NC(=O)c3ccccc3OC)[C@@H](OC)C2)c2ccccc21` [Co. No. 20], the IC50 is 22.9 nM in the test with HepG2 cells and 12.6 nM against MTP.
For `CCCNC(=O)C1(c2ccccc2)CCC(CN2CCC(NC(=O)c3ccccc3-c3ccc(C(F)(F)F)cc3)CC2)c2ccccc21` (centres unmarked) [Co. No. 6] the same measures were 20.4 nM and 16 nM.
For `COC(=O)[C@]1(c2ccccc2)CC[C@@H](C(=O)N2CCC(NC(=O)c3cc(C)ccc3OC)CC2)c2ccccc21` [Co. No. 51], the IC50 in the test with HepG2 cells was 9.51 nM; against MTP, 12.8 nM.
Consider `COc1ccccc1C(=O)NC1CCN(C(=O)[C@H]2CC[C@@](C(=O)NCCCC(=O)OC(C)(C)C)(c3ccccc3)c3ccccc32)CC1` [Co. No. 203], for which the half-inhibitory concentration (IC50) was 30 nM with HepG2 cells and 2.05 nM on MTP.
Consider `COC(=O)[C@H](CCCCNC(=O)[C@@]1(c2ccccc2)CC[C@H](C(=O)N2CCC(NC(=O)c3ccccc3OC)CC2)c2ccccc21)NC(C)=O` [Co. No. 214], for which the half-inhibitory concentration (IC50) with HepG2 cells was above 1000 nM; against MTP it was 26.8 nM.
With `COc1ncccc1C(=O)NC1CCN(C(=O)[C@@H]2CC[C@](C(=O)NCCC(=O)OC(C)C)(c3ccccc3)c3ccccc32)CC1` [Co. No. 261], the half-inhibitory concentration (IC50) with HepG2 cells is above 1000 nM; against MTP, 757 nM.
Regarding `CCNC(=O)[C@]1(c2ccccc2)CC[C@H](C(=O)N2CCC(NC(=O)c3ccccc3-c3ccc(C(F)(F)F)cc3)CC2)c2ccccc21` [Co. No. 11], the half-maximal inhibitory concentration (IC50) in the test on HepG2 cells is above 100 nM; on MTP it was 217 nM.
Turning to `COc1ccccc1C(=O)NC1CCN(C(=O)[C@H]2CC[C@@](C(=O)NCCC(=O)OC(C)(C)C)(c3ccccc3)c3ccccc32)CC1` [Co. No. 88], the concentration for half-maximal inhibition (IC50) in the test on HepG2 cells is 20.6 nM; against MTP it was 2.15 nM.
Consider `COC(=O)CCCCCNC(=O)[C@@]1(c2ccccc2)CC[C@H](C(=O)N2CCC(NC(=O)c3ccccc3OC)CC2)c2ccccc21` [Co. No. 207], for which the IC50 in the test on HepG2 cells is above 1000 nM; on MTP, 2.59 nM.
`CCOC(=O)[C@H](NC(=O)[C@@]1(c2ccccc2)CC[C@H](C(=O)N2CCC(NC(=O)c3ccccc3OC)CC2)c2ccccc21)C(C)C` [Co. No. 69]: the figures for the IC50 in the test with HepG2 cells and against MTP were 154 nM and 24.4 nM, respectively.
For the compound `COc1ccccc1C(=O)NC1CCN(C(=O)[C@H]2CC[C@@](C(=O)N[C@@H](COC(C)(C)C)C(=O)OC(C)(C)C)(c3ccccc3)c3ccccc32)CC1` [Co. No. 105], the figures for the IC50 with HepG2 cells and on MTP were 271 nM and 48.8 nM, respectively.
For `CCOC(=O)CCCCNC(=O)[C@@]1(c2ccccc2)CC[C@H](C(=O)N2CCC(NC(=O)c3ccccc3OC)CC2)c2ccccc21` [Co. No. 205], the half-maximal inhibitory concentration (IC50) in the test with HepG2 cells was 75.5 nM; at MTP, 5.45 nM.
For `CCNC(=O)[C@]1(c2ccccc2)CC[C@@H](C(=O)N2CCC(NC(=O)c3ccccc3-c3ccc(C(F)(F)F)cc3)CC2)c2ccccc21` [Co. No. 10] the same measures were 1.85 nM and 1.96 nM.
`COc1ccccc1C(=O)NC1CCN(C(=O)[C@@H]2CC[C@](C(=O)NCCC(=O)OC(C)C)(c3ccccc3)c3ccccc32)CC1` [Co. No. 257]: the 50% inhibitory concentration (IC50) with HepG2 cells and against MTP was above 1000 nM each time.
For the compound `C=CCOC(=O)[C@]1(c2ccccc2)CC[C@@H](C(=O)N2CCC(NC(=O)c3ccccc3OC)CC2)c2ccccc21` [Co. No. 46], the pIC50 with HepG2 cells (pIC50 = -log IC50, listed as 46) came to 6.649.
`C=CCOC(=O)[C@@]1(c2ccccc2)CC[C@H](C(=O)N2CCC(NC(=O)c3ccccc3OC)CC2)c2ccccc21` [Co. No. 45]: the IC50 in the test with HepG2 cells was 2.63 nM.
In the test with HepG2 cells, `O=C(NC1CCN(C(=O)C2CCC(C(=O)Nc3ccccc3)(c3ccccc3)c3ccccc32)CC1)c1ccccc1` (centres unmarked) [Co. No. 2] gave an IC50 of 74.5 nM.
In the test on HepG2 cells, `O=C(NC1CCN(CC2CCC(C(=O)NCc3ccccc3)(c3ccccc3)c3ccccc32)CC1)c1ccccc1` (centres unmarked) [Co. No. 1] had a half-maximal inhibitory concentration (IC50) of 1840 nM.
In turn, `CCCNC(=O)C1(c2ccccc2)CCC(CN2CCC(NC(=O)c3ccccc3)CC2)c2ccccc21` (centres unmarked) [Co. No. 5] had an IC50 in the test with HepG2 cells of 1910 nM.
On MTP, `COc1ccccc1C(=O)NC1CCN(C(=O)[C@H]2CC[C@@](C(=O)N[C@@H](CC(C)C)C(=O)O)(c3ccccc3)c3ccccc32)CC1` [Co. No. 119] showed an IC50 above 10000 nM.
In the case of `CCOC(=O)C(Cc1ccc(O)cc1)NC(=O)[C@@]1(c2ccccc2)CC[C@H](C(=O)N2CCC(NC(=O)c3cccn(C)c3=O)CC2)c2ccccc21` (some centres unmarked) [Co. No. 156], 1530 nM corresponded to half-maximal inhibition against MTP (IC50).
The compound `Cn1cccc(C(=O)NC2CCN(C(=O)[C@H]3CC[C@@](C(=O)N[C@H](Cc4ccccc4)C(=O)OC(C)(C)C)(c4ccccc4)c4ccccc43)CC2)c1=O` [Co. No. 179] showed an IC50 against MTP of 1320 nM.
The same measure, in the same setting: the value for `CCOC(=O)C[C@H](NC(=O)[C@@]1(c2ccccc2)CC[C@H](C(=O)N2CCC(NC(=O)c3cccn(C)c3=O)CC2)c2ccccc21)C(=O)OCC` [Co. No. 143] was 1920 nM; that for `CCOC(=O)[C@]1(c2ccccc2)CC[C@H](C(=O)N2CCN(C(=O)c3ccccc3-c3ccc(C(F)(F)F)cc3)CC2)c2ccccc21` [Co. No. 31] was 348 nM.
On MTP, `COC(=O)CCCNC(=O)[C@@]1(c2ccccc2)CC[C@H](C(=O)N2CCC(NC(=O)c3cccn(C)c3=O)CC2)c2ccccc21` [Co. No. 224] showed an IC50 of 1140 nM.
With `Cn1cccc(C(=O)NC2CCN(C(=O)[C@H]3CC[C@@](C(=O)N[C@@H](CCC(=O)OC(C)(C)C)C(=O)OC(C)(C)C)(c4ccccc4)c4ccccc43)CC2)c1=O` [Co. No. 171], half-maximal inhibition against MTP (IC50) was put at 418 nM.
With `CC(C)[C@H](NC(=O)[C@@]1(c2ccccc2)CC[C@H](C(=O)N2CCC(NC(=O)c3cccn(C)c3=O)CC2)c2ccccc21)C(=O)O` [Co. No. 187], the half-inhibitory concentration (IC50) at MTP is above 10000 nM.
On MTP, `COc1ccccc1C(=O)NC1CCN(C(=O)[C@H]2CC[C@@](C(=O)N3C[C@H](OC(C)(C)C)C[C@H]3C(=O)OC(C)(C)C)(c3ccccc3)c3ccccc32)CC1` [Co. No. 91] showed an IC50 above 100 nM.
Still for that read-out and setting: the value for `CCNC(=O)[C@]1(c2ccccc2)CC[C@@H](CN2CCC(NC(=O)c3ccccc3)CC2)c2ccccc21` [Co. No. 17] was 277 nM; that for `CCOC(=O)[C@H](NC(=O)[C@@]1(c2ccccc2)CC[C@H](C(=O)N2CCC(NC(=O)c3cccn(C)c3=O)CC2)c2ccccc21)C(C)C` [Co. No. 140] was 1090 nM.
`Cn1cccc(C(=O)NC2CCN(C(=O)[C@H]3CC[C@@](C(=O)N[C@@H](Cc4ccc(O)cc4)C(=O)O)(c4ccccc4)c4ccccc43)CC2)c1=O` [Co. No. 197] had a concentration for half-maximal inhibition (IC50) at MTP above 10000 nM.
Consider `Cn1cccc(C(=O)NC2CCN(C(=O)[C@H]3CC[C@@](C(=O)N[C@@H](Cc4ccccc4)C(=O)OC(C)(C)C)(c4ccccc4)c4ccccc43)CC2)c1=O` [Co. No. 178], for which half-maximal inhibition against MTP (IC50) was put at 1490 nM.
Consider `C[C@H](NC(=O)[C@@]1(c2ccccc2)CC[C@H](C(=O)N2CCC(NC(=O)c3cccn(C)c3=O)CC2)c2ccccc21)C(=O)O` [Co. No. 183], for which, at MTP, the half-inhibitory concentration (IC50) is above 10000 nM.
The same measure, in the same setting: the value for `CCOC(=O)NCCCC[C@@H](NC(=O)[C@@]1(c2ccccc2)CC[C@H](C(=O)N2CCC(NC(=O)c3cccn(C)c3=O)CC2)c2ccccc21)C(=O)OC` [Co. No. 238] was 2330 nM.
For the compound `COc1ccccc1C(=O)NC1CCN(C(=O)[C@H]2CC[C@@](C(=O)N[C@H](C)C(=O)O)(c3ccccc3)c3ccccc32)CC1` [Co. No. 97], on MTP, the concentration for half-maximal inhibition (IC50) was 4120 nM.
Same read-out and setting: the value for `CCNC(=O)[C@]1(c2ccccc2)CC[C@H](C(=O)N2CCC(NC(=O)c3ccccc3OC)CC2)c2ccccc21` [Co. No. 9] was 689 nM; that for `Cn1cccc(C(=O)NC2CCN(C(=O)[C@H]3CC[C@@](C(=O)N[C@@H](CC(N)=O)C(=O)O)(c4ccccc4)c4ccccc43)CC2)c1=O` [Co. No. 198] was above 10000 nM.
Take `CCOC(=O)C(Cc1c[nH]c2ccccc12)NC(=O)[C@@]1(c2ccccc2)CC[C@H](C(=O)N2CCC(NC(=O)c3cccn(C)c3=O)CC2)c2ccccc21` (some centres unmarked) [Co. No. 157]: half-maximal inhibition against MTP (IC50) required 1650 nM.
